2 compounds from paper PMC3898329, “Human junctophilin-2 undergoes a structural rearrangement upon binding PtdIns(3,4,5)P3 and the S101R mutation identified in hypertrophic cardiomyopathy obviates this response” (Biochemical Journal, 2013) can be followed below.

The target in assay [1] is T1, full-length human JP2 (junctophilin-2) (Homo sapiens, UniProt Q9BR39).
T1 construct: gene JPH2; full-length, N-terminal MBP tag removed with PreScission protease; E. coli BL21; ~75 kDa on SDS/PAGE; stated as monomeric
T1 sequence (Q9BR39 1-696): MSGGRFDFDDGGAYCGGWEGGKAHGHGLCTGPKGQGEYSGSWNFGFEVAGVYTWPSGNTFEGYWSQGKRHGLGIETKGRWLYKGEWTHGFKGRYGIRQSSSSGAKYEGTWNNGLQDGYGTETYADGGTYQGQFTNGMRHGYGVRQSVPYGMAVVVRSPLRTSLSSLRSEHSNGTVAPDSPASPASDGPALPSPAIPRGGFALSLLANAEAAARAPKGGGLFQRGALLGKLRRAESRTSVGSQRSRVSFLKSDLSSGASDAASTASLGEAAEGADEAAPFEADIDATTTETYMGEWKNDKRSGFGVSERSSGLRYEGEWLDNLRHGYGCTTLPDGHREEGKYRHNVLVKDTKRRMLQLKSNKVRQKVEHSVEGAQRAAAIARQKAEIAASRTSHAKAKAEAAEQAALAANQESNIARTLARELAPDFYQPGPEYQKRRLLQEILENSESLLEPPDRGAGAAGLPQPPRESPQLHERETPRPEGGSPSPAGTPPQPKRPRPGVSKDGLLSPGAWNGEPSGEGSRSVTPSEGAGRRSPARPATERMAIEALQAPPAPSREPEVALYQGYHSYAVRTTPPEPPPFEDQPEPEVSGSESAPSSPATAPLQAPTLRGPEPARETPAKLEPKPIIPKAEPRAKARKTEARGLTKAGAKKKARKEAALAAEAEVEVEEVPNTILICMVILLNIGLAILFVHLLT
Description: protein-lipid overlay. The following applies: weak binding.

The target of assay [2] is T2, JP2^1–452 (N-terminal domain) (Homo sapiens, UniProt Q9BR39).
T2 construct: gene JPH2; N-terminal segment, residues 1-452, N-terminal MBP tag removed with PreScission protease; E. coli BL21; ~50 kDa on SDS/PAGE
T2 sequence (Q9BR39 1-452): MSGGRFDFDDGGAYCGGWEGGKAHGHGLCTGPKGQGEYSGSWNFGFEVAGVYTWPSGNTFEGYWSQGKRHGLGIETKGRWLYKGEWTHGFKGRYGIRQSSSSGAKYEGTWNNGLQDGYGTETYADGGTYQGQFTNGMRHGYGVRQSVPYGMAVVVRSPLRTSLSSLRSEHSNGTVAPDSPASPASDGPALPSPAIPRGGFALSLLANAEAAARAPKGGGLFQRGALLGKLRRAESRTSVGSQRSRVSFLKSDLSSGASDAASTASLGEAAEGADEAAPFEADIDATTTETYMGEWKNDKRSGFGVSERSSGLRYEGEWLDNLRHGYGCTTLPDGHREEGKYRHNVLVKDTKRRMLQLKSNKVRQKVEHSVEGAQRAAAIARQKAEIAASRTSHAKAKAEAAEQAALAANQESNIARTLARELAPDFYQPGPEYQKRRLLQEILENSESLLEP
Description: QCM-D, supported lipid bilayer, one-site isotherm. The format is binding. The following applies: read-out: DOPC/DOPE/POPC/DOPS (55:15:10:20, by vol.) / JP2^1-452. The source says:
QCM-D, supported lipid bilayer, one-site isotherm on JP2^1–452 (N-terminal domain)

In assay [3] the target is T1, full-length human JP2 (junctophilin-2). Description: QCM-D, supported lipid bilayer, one-site isotherm. The format is binding. The following applies: read-out: DOPC/DOPE/POPC/DOPS (55:15:10:20, by vol.) JP2. The source says:
(§1) QCM-D, supported lipid bilayer, one-site isotherm on full-length human JP2 (junctophilin-2)

Assay [4] concerns the target T3, full-length human JP2 (junctophilin-2) (Homo sapiens, UniProt Q9BR39, S101R).
T3 construct: gene JPH2; full-length, N-terminal MBP tag removed with PreScission protease; E. coli BL21; ~75 kDa on SDS/PAGE; stated as monomeric
T3 sequence (Q9BR39 1-696 S101R): T1 sequence (Q9BR39 1-696) with S101R
Description: QCM-D, supported lipid bilayer, one-site isotherm. The format is binding. To be noted: read-out: DOPC/DOPE/POPC/DOPS (55:15:10:20, by vol.) / S101R.
Text: as §1

Where a chain is given by its changes, count along the chain named.

Take `CCCCCCCC/C=C\CCCCCCCC(=O)OC[C@H](COP(=O)(O)OCC(O)CO)OC(=O)CCCCCCC/C=C\CCCCCCCC` (stereo partly shown) [DOPG, 1,2-dioleoyl-sn-glycero-3-phosphoglycerol]: the protein-lipid overlay result in assay [1] is recorded as “there is only weak binding of JP2 to DOPG”.
Turning to `CCCCCCCC/C=C\CCCCCCCC(=O)OC[C@H](COP(=O)(O)OC[C@H](N)C(=O)O)OC(=O)CCCCCCC/C=C\CCCCCCCC` [DOPS, 1,2-dioleoyl-sn-glycero-3-phospho-L-serine], the results for the Kd in assay [2], in assay [3] and in assay [4] were 992 ± 80 nM, 483 ± 54 nM and 371 ± 31 nM, respectively.
